From article PMC9945734 (BMC Medicine, 2023)

How the values were obtained:
[1] = test system: DU 145 (KLF5 null) cells expressing KLF5; assay: CCK-8 cell viability assay; assay type: cell-based; settings: Homo sapiens, CCK-8, 48 h
Protocol: (§1) According to the manufacturer's instructions, cell viability was measured using a kit from Beyotime Biotechnology. Briefly, cells were seeded onto 96-well plates at 5 × 10^3 cells per well, incubated overnight, and then treated for 48 h with drugs at 0, 0.02, 0.05, 0.14, 0.41, 1.23, 3.7, 11.1, 33.3, and 100 μM. Four drugs were analyzed: furagin, nifuratel, nitazoxanide, and retapamulin. At the end of drug treatment, the medium was removed, the CCK-8 solution was added into each well at 100 μL/well and incubated for 1.5 h at 37°C, and the optical density (OD) was measured at 450 nm using a microplate reader (BioTek).

[2] = test system: DU 145 (KLF5 null) cells expressing KLF5^K369R; assay: CCK-8 cell viability assay; assay type: cell-based; settings: Homo sapiens, CCK-8, 48 h
Protocol: as §1

[3] = test system: PC-3 (KLF5 null) cells expressing KLF5^K369R; assay: CCK-8 cell viability assay; assay type: cell-based; settings: Homo sapiens, CCK-8, 48 h
Protocol: as §1

[4] = test system: PC-3 (KLF5 null) cells expressing KLF5; assay: CCK-8 cell viability assay; assay type: cell-based; settings: Homo sapiens, CCK-8, 48 h
Protocol: as §1

MYBL2 = MYBL2 immunohistochemical staining of bone tissues; assay type: in vivo, Balb/c nude mice; settings: treatment in mice
Protocol: Immunohistochemical staining was conducted following established procedures. Briefly, 4-μm sections of bone tissues were deparaffinized in xylene and rehydrated in gradient ethanol. The endogenous antigen was retrieved by incubating slides in 10 mM sodium citrate buffer (Cat #: C1010, Solarbio, Beijing, China) overnight in an oven at 65°C. After antigen retrieving, tissue sections were incubated with 3% hydrogen peroxide at room temperature for 10 min to block the endogenous […] activity. They were then incubated in a blocking solution (0.1% albumin bovine V mixed with 10% goat serum) for 40 min, and a solution containing a primary antibody (MMP9, 1:1000, Cat #: ab76003, Abcam, Cambridge, UK; MYBL2, 1:100, Cat #: ab76009, Abcam) for 1.5 h. After rinsing with PBS for 3 times, slides were incubated with the secondary antibody solution for 15 min and then with the DAB solution using the MaxVision II HRP kit (Cat #: KIT-5920, MXB Biotechnologies, Fuzhou, China). Nuclei were counterstained with hematoxylin for 2 min. Slides were then dehydrated with gradient ethanol (75–100%) and xylene and mounted with coverslips using the quick-hardening mounting medium. All slides were scanned using an Aperio VERSA 8 Scanner System (Leica, Wetzlar, Germany) and analyzed using the Image J software (Image J 1.48v, NIH, Bethesda, MD, USA).

[5] = In vivo toxicity: body weight, adverse events, H&E of major organs; set-up: species or system Balb/c nude mice; settings: 100 mg/kg intragastric every day
PC-3-KQ-Luc cells = assay: Bone metastasis assay, therapy mode; assay type: in vivo, Balb/c nude mice
Protocol: Male Balb/c nude mice at 3-4 weeks old were purchased from Charles River (Beijing, China). Upon arrival at the Animal Center of the Southern University of Science and Technology (SUSTech), mice were quarantined for one week before use. All mice were maintained and handled following the National Institutes of Health guide for the Care and Use of Laboratory Animals. […] The tumor growth and body weight were measured each week. […] Tumor growth in the bone was determined once a week by in vivo BL imaging using the Living Image Software 4.4 (IVIS Spectrum, PerkinElmer Health Sciences, Massachusetts, USA). Ten minutes after intraperitoneal injection of D-luciferin sodium salt (15 mg/mL, 10 μL/g BW) (GM-040611, Genomeditech, Shanghai, China), bioluminescence images were acquired with the following conditions: open emission filter, exposure time = 60 s, binning = medium: 8, field of view = 12.9 ×12.9 cm, and f/stop = 1. Images were then analyzed using the Living Image 4.4 software (PerkinElmer). At the end of treatment, bioluminescence intensities were measured by photon flux of the region of interest (ROI) and compared between the vehicle and NTZ treatment groups. […] CC0113, […] Biotechnology, Beijing, China) was used as vehicle control, and NTZ was solved in CMC. NTZ was delivered into mice via intragastric administration (100 mg/kg BW) every day. After the sacrifice of mice, hind limbs were removed and fixed in 4% paraformaldehyde for 48 h. Limbs were then scanned using a micro-CT scanner (Skyscan1276, Bruker, Kontich, Belgium). For micro-CT imaging, the scan parameters were: source voltage, 60 kV; source current, 100 μA; AI 0.5 mm filter; pixel size, 10 μm; rotation step, 0.4 degrees. The images were then processed and constructed using the NRecon software (Version 1.7.1.6, Bruker) and converted using […] (Version 1.5.4, Bruker). The region of interest (ROI), set at 0.5 mm from the femur growth plate, was analyzed using the CT-Analyser (CTAn) program. Parameters included bone volume/total volume (BV/TV), trabecular number (Tb.N), trabecular separation (Tb.Sp), and trabecular thickness (Tb.Th). Finally, the 3D images were performed in CTvox software (Version 2.0, Bruker). Femurs were decalcified in ethylenediaminetetraacetic (EDTA) decalcification solution (Cat #: R20403-5L, OKA, Beijing, China) for 14-21 days. After decalcification, bone tissues were dehydrated in gradient ethanol from 70 to 95%, soaked in n-butanol for 6 h, and then embedded in paraffin. Tissue blocks were cut into 4 μm sections. After baking in an oven at 63°C for 1.5 h, tissue slides were deparaffinized with xylene, hydrated with gradient ethanol, and then stained with H&E (Cat #: BA4025, BaSO, Zhuhai, China). Slides were then mounted for analysis with neutral resins (Cat #: 25608-33-7, Sigma-Aldrich, MO, USA).

[6] = 100 mg/kg intragastric every day

CC(=O)Oc1ccccc1C(=O)Nc1ncc([N+](=O)[O-])s1 [Nitazoxanide]
IC50 [1]: 55.6 ± 1.4 µM
IC50 [2]: 49.2 ± 10.1 µM
IC50 [3]: 11.4 ± 1 µM
IC50 [4]: 7 ± 0.7 µM
MYBL2 protein expression in bone tissues (IHC) (MYBL2): significantly decreased MYBL2 protein expression
severe adverse events, mortality, histopathological changes in heart, lung, liver, spleen, kidney ([5]; prevention mode): no mice in any NTZ-treated group had severe adverse events, mortality, or noticeable histopathological changes
body weight ([5]; prevention mode, after 5 weeks): did not show a noticeable change
body weights ([5]; therapy mode): not affected
bone lesions (micro-CT) (PC-3-KQ-Luc cells; [6]): significantly reduced such lesions
tumor area in the bone (H&E) (PC-3-KQ-Luc cells; [6]): significantly reduced the tumor area
BV/TV (PC-3-KQ-Luc cells; micro-CT of femurs): significantly increased
Tb. N (PC-3-KQ-Luc cells; micro-CT of femurs): significantly increased
Tb. Sp (PC-3-KQ-Luc cells; micro-CT of femurs): potently decreased
Tb. Th (PC-3-KQ-Luc cells; micro-CT of femurs): significantly increased
bioluminescence intensities (PC-3-KQ-Luc cells; treatment from day 7 for 4 weeks, 100 mg/kg intragastric every day): sharply decreased bioluminescence intensities
